Assay: Comparative hygroscopicity testing (water content by Karl Fischer analysis)
Format: physicochemical
Details: for Water content of sample after testing: after 24 hours at 25° C. in desiccator containing saturated ammonium sulphate solution, 1 g sample in unstoppered vessel, KF analysis; for Increase in water content: after vs before 24 hours at 25° C. over saturated ammonium sulphate solution; for Water content of sample before testing: before hygroscopicity testing, Karl Fischer (KF) analysis
Method: The hygroscopicity of form APO-III as reported in WO 2014/059518 A1 was compared with the hygroscopicity of the form APO-VII of the present invention.
The hygroscopicity testing was conducted by placing 1 g of each sample in an unstoppered weighing vessel in a desiccator containing a saturated ammonium sulphate solution. The desiccator was placed in an oven at 25° C. for 24 hours. The water content was measured before and after the testing by Karl Fischer (KF) analysis.

SMILES	Water content of sample after testing [% w/w]	Increase in water content	Water content of sample before testing [% w/w]
Cc1cn(-c2cc(NC(=O)c3ccc(C)c(Nc4nccc(-c5cccnc5)n4)c3)cc(C(F)(F)F)c2)cn1.Cl [Form APO-III]	3.5671	3.2795	0.2876
Cc1cn(-c2cc(NC(=O)c3ccc(C)c(Nc4nccc(-c5cccnc5)n4)c3)cc(C(F)(F)F)c2)cn1.Cl [Form APO-VII]	0.4757	0.1812	0.2945

— patent publication US10016423B2, “Solid forms of nilotinib hydrochloride” (Apotex Inc., priority 2014, dated 2018)
